Earlier results as cited in patent US20120058205A1, “COMPOSITIONS AND TREATMENT REGIMES FOR REDUCING INFLAMMATION, END-ORGAN INJURY, AND/OR SYSTEMIC ENDOTOXEMIA” (priority 2009, published 2012).
One block for each compound: values may come before it.

Assays:
[1] = animal model; also printed as ≦1,000 nmol/L
[2] = consistently above; also printed as 500 nmol/L; possible hypercalcemia and hyperphosphatemia
aldosterone = details: administration to diabetic patients

SMILES: C=C1/C(=C\C=C2/CCC[C@]3(C)[C@@H]([C@H](C)CCCC(C)(C)O)CC[C@@H]23)C[C@@H](O)C[C@@H]1O [1,25(OH)2D, 1,25-dihydroxyvitamin D]
half-life (circulating): 15 h

circulating half-life (in vivo): 360 h
SMILES: C=C1CC[C@H](O)C/C1=C/C=C1\CCC[C@]2(C)[C@@H]([C@H](C)CCCC(C)(C)O)CC[C@@H]12 [25(OH)D, 25-hydroxyvitamin D]
concentrations that demonstrated no toxicity [1]: ≤ 400 ng/mL
serum concentration considered potentially toxic [2]: above 200 ng/mL

SMILES: CC(=O)S[C@@H]1CC2=CC(=O)CC[C@]2(C)[C@H]2CC[C@@]3(C)[C@@H](CC[C@@]34CCC(=O)O4)[C@H]12 [spironolactone]
increase of aldosterone levels (aldosterone): ≥ 400%
